In ChEMBL document CHEMBL1157525, “The design and synthesis of potent and cell-active allosteric dual Akt 1 and 2 inhibitors devoid of hERG activity” (Bioorg Med Chem Lett, 2008):
pIC50: −log10 of the molar value.

Experiments:
[1] = target: T1, RAC-beta serine/threonine-protein kinase (Homo sapiens, UniProt P31751); test: Inhibition of Akt2 by cellular assay
[2] = target: T2, RAC-alpha serine/threonine-protein kinase (Homo sapiens, UniProt P31749); test: Inhibition of Akt1 by cellular assay
[3] = target: Voltage-gated inwardly rectifying potassium channel KCNH2 (Homo sapiens, UniProt Q12809); test: Inhibition of human ERG in embryonic kidney cells by radioligand-binding competition assay
Sequence of Voltage-gated inwardly rectifying potassium channel KCNH2 (Q12809 whole entry): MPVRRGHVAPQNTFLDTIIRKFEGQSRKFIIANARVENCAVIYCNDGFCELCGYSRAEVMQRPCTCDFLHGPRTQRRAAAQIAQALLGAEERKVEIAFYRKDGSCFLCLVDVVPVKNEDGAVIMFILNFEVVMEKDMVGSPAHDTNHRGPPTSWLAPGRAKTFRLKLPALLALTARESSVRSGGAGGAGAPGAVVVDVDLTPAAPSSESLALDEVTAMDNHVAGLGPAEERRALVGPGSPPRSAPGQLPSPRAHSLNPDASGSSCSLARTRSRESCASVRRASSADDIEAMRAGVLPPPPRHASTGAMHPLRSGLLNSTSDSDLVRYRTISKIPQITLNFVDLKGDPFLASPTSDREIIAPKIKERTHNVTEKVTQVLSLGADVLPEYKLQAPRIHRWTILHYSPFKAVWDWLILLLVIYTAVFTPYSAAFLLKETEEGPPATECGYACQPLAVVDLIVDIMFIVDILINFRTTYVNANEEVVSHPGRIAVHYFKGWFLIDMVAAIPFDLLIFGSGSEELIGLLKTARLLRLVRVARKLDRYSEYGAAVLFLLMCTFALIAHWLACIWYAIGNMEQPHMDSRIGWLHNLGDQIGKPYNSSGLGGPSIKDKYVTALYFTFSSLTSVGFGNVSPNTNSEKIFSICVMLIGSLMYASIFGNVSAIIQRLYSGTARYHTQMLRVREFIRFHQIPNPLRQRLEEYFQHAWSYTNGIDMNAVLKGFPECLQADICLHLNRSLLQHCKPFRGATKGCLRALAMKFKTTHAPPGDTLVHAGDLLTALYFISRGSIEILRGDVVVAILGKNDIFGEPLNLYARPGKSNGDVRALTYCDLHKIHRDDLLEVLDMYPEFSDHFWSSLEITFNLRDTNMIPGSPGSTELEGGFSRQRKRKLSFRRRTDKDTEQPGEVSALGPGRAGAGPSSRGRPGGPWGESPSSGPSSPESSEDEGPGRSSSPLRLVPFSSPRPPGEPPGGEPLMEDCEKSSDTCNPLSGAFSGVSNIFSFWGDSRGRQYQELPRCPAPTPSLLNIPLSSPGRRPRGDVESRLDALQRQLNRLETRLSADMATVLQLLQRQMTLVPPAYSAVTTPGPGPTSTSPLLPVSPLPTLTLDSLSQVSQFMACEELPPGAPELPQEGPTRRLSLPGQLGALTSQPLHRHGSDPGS

[4] = target: T2, RAC-alpha serine/threonine-protein kinase; test: Inhibition of Akt1
[5] = target: T1, RAC-beta serine/threonine-protein kinase; test: Inhibition of Akt2

T1 sequence (P31751 whole entry): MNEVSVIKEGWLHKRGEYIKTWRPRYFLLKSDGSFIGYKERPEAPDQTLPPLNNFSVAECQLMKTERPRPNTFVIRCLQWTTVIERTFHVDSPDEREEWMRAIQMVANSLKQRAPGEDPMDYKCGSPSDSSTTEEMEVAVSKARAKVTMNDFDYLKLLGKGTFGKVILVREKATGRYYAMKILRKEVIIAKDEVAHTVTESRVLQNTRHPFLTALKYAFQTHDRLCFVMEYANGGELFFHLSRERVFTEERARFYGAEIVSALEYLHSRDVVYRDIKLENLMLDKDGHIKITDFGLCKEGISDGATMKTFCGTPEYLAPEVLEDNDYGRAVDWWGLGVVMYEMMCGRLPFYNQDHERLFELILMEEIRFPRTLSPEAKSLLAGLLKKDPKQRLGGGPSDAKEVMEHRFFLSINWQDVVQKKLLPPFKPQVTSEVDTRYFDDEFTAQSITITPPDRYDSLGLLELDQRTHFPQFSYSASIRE
T2 sequence (P31749 whole entry): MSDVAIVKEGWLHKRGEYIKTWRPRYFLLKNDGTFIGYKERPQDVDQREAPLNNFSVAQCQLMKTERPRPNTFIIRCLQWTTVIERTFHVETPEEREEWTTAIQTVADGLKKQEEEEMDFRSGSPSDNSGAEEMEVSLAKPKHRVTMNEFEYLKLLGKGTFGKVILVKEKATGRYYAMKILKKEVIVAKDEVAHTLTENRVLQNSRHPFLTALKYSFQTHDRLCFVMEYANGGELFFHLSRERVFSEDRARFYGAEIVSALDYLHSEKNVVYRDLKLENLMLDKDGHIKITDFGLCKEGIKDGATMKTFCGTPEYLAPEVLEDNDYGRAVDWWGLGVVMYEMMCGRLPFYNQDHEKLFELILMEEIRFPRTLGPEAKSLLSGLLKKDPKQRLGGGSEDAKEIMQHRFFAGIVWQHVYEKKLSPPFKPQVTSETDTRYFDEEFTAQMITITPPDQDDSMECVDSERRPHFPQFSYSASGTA

Row | Compound | pIC50 [1] | pIC50 [2] | pIC50 [3] | pIC50 [4] | pIC50 [5]
1 | CN1CCN(c2ccc3nc(-c4ccc(CN5CCC(c6nnc(-c7ccccn7)[nH]6)CC5)cc4)c(-c4ccccc4)nc3n2)CC1 | 6.08 | 5.85 | – | – | –
2 | CN(C)CCN1CCN(c2ncc3cc(-c4ccccc4)c(-c4ccc(CN5CCC(c6nnc(-c7ccc(=O)[nH]c7)[nH]6)CC5)cc4)nc3n2)CC1 | 7.01 | 7.16 | 6.10 | – | –
3 | OCCN1CCN(c2ncc3cc(-c4ccccc4)c(-c4ccc(CN5CCC(c6nc(-c7ncccn7)n[nH]6)CC5)cc4)nc3n2)CC1 | 7.10 | 7.43 | < 5.00 | – | –
4 | CN1CCN(c2ccc3nc(-c4ccccc4)c(-c4ccc(CN5CCC(c6nnc(-c7ccccn7)[nH]6)CC5)cc4)nc3n2)CC1 | 7.04 | 7.74 | – | – | –
5 | O=c1ccc(-c2nnc(C3CCN(Cc4ccc(-c5nc6cc[nH]c(=O)c6cc5-c5ccccc5)cc4)CC3)[nH]2)c[nH]1 | 6.55 | 7.21 | < 5.00 | 9.00 | 8.10
6 | CN(C)CCN1CCN(c2ncc3cc(-c4ccccc4)c(-c4ccc(CN5CCC(c6nnc(-c7cc[n+]([O-])cc7)[nH]6)CC5)cc4)nc3n2)CC1 | 7.17 | 7.48 | 5.10 | – | –
7 | CN(C)CCN1CCN(c2ncc3cc(-c4ccccc4)c(-c4ccc(CN5CCC(c6nnc(-c7ccccn7)[nH]6)CC5)cc4)nc3n2)CC1 | 7.41 | 8.00 | 5.68 | 8.40 | 8.40
8 | CN(C)CCN1CCN(c2ccc3nc(-c4ccccc4)c(-c4ccc(CN5CCC(c6nnc(-c7ccccn7)[nH]6)CC5)cc4)nc3n2)CC1 | 7.37 | 8.00 | – | – | –
9 | Nc1ccc(-c2nnc(C3CCN(Cc4ccc(-c5nc6cc[nH]c(=O)c6cc5-c5ccccc5)cc4)CC3)[nH]2)cn1 | 6.78 | 7.59 | 5.00 | 8.40 | 7.48
10 | CN1CCN(c2ncc3cc(-c4ccccc4)c(-c4ccc(CN5CCC(c6nnc(-c7ccc(=O)[nH]c7)[nH]6)CC5)cc4)nc3n2)CC1 | 6.73 | 7.15 | – | – | –
11 | CN1CCN(c2ccc3nc(-c4ccccc4)c(-c4ccc(CN5CCC(c6nnc(-c7ccc(N)nc7)[nH]6)CC5)cc4)nc3n2)CC1 | 6.65 | 7.15 | – | – | –
12 | CN(C)CCN1CCN(c2ncc3cc(-c4ccccc4)c(-c4ccc(CN5CCC(c6nnc(-c7ccc(N)nc7)[nH]6)CC5)cc4)nc3n2)CC1 | 6.85 | 7.43 | – | – | –
13 | [O-][n+]1ccc(-c2nnc(C3CCN(Cc4ccc(-c5nc6nc(N7CCN(CCO)CC7)ncc6cc5-c5ccccc5)cc4)CC3)[nH]2)cc1 | 6.84 | 7.17 | < 5.00 | – | –
14 | OCCN1CCN(c2ccc3nc(-c4ccccc4)c(-c4ccc(CN5CCC(c6nc(-c7ncccn7)n[nH]6)CC5)cc4)nc3n2)CC1 | 6.72 | 7.14 | – | – | –
15 | Nc1ccc(-c2nnc(C3CCN(Cc4ccc(-c5nc6nc(N7CCN(CCO)CC7)ncc6cc5-c5ccccc5)cc4)CC3)[nH]2)cn1 | 6.74 | 7.42 | – | – | –
16 | CN1CCN(c2ncc3cc(-c4ccccc4)c(-c4ccc(CN5CCC(c6nnc(-c7ncccn7)[nH]6)CC5)cc4)nc3n2)CC1 | 7.40 | 7.60 | – | – | –
17 | CN(C)CCN1CCN(c2ccc3nc(-c4ccccc4)c(-c4ccc(CN5CCC(c6nc(-c7ncccn7)n[nH]6)CC5)cc4)nc3n2)CC1 | 6.94 | 6.98 | < 5.00 | – | –
18 | CN(C)CCN1CCN(c2ncc3cc(-c4ccccc4)c(-c4ccc(CN5CCC(c6nnc(-c7ncccn7)[nH]6)CC5)cc4)nc3n2)CC1 | 6.89 | 7.46 | 5.32 | – | –
19 | O=c1[nH]ccc2nc(-c3ccc(CN4CCC(c5nnc(-c6cnccn6)[nH]5)CC4)cc3)c(-c3ccccc3)cc12 | 6.39 | 7.36 | – | 8.40 | 7.68
20 | OCCN1CCN(c2ccc3nc(-c4ccccc4)c(-c4ccc(CN5CCC(c6nnc(-c7ccccn7)[nH]6)CC5)cc4)nc3n2)CC1 | 7.32 | 7.89 | – | – | –
21 | O=c1[nH]ccc2nc(-c3ccc(CN4CCC(c5nnc(-c6ncccn6)[nH]5)CC4)cc3)c(-c3ccccc3)cc12 | 7.16 | 7.64 | < 5.00 | 8.15 | 7.36
22 | CN1CCN(c2ncc3cc(-c4ccccc4)c(-c4ccc(CN5CCC(c6nnc(-c7ccc(N)nc7)[nH]6)CC5)cc4)nc3n2)CC1 | 7.08 | 7.70 | 5.21 | – | –
23 | O=C1NCCc2nc(-c3ccc(CN4CCC(c5nnc(-c6ccccn6)[nH]5)CC4)cc3)c(-c3ccccc3)cc21 | 6.65 | 7.80 | 5.60 | 8.46 | 7.59
24 | CN1CCN(c2ccc3nc(-c4ccccc4)c(-c4ccc(CN5CCC(c6nnc(-c7ncccn7)[nH]6)CC5)cc4)nc3n2)CC1 | 6.72 | 7.28 | – | – | –
25 | O=c1ccc(-c2nnc(C3CCN(Cc4ccc(-c5nc6nc(N7CCN(CCO)CC7)ncc6cc5-c5ccccc5)cc4)CC3)[nH]2)c[nH]1 | 6.55 | 6.90 | 5.17 | – | –
26 | COc1ccc(-c2nnc(C3CCN(Cc4ccc(-c5nc6cc[nH]c(=O)c6cc5-c5ccccc5)cc4)CC3)[nH]2)cn1 | 6.80 | 7.40 | 5.91 | 8.52 | 7.80
27 | Nc1ccc(-c2nnc(C3CCN(Cc4ccc(-c5nc6nc(N7CCN(CCO)CC7)ccc6nc5-c5ccccc5)cc4)CC3)[nH]2)cn1 | 6.64 | 6.94 | – | – | –
28 | CN1CCN(c2ncc3cc(-c4ccccc4)c(-c4ccc(CN5CCC(c6nnc(-c7cc[n+]([O-])cc7)[nH]6)CC5)cc4)nc3n2)CC1 | 6.73 | 7.06 | 5.01 | – | –
